Values quoted from earlier work as cited in patent publication US20070092586A1, “Compositions and methods for the administration psychotropic drugs which modulate body weight” (Alamo Pharmaceuticals, priority 2005, published 2007).

What was measured:
[1] = lithium maintenance therapy; J. Clin. Psychopharmacol. 1988

patients with weight gains of over 10 kg [1] [%] | Compound | increase in body weight (mean) (59 patients taking clozapine for an unstated period, P<0.05, Gerlach et al. 1989) [kg] | mean increase in body weight (over 21 months, patients who responded to clozapine and remained clinically stable, Jalenques et al. 1996) [kg]
 | CN1CCN(C2=Nc3cc(Cl)ccc3Nc3ccccc32)CC1 [clozapine, 8-chloro-11-(4-methyl-1-piperazinyl)-5H-dibenzo[b,e] [1,4] diazepine] | 2.8 | 12.4
20 | O=C([O-])[O-].[Li+].[Li+] [lithium] |  | 
